Assay [1] concerns the target PHD2181-417 (Homo sapiens (Human), UniProt Q9GZT9). The assay is described as follows: PHD enzymatic assay ([14C]-succinic acid production). The assay is classed as biochemical. The settings on record: purified PHD2181-417, HIF-1α peptide substrate, 30 min pre-incubation; average of results. How it is done: Expression and Purification of PHD2181-417
The human PHD2 expression construct containing amino acids 181-417 of GenBank Accession ID NM_022051 was cloned into a pBAD vector (Invitrogen), incorporating both an N-terminal histidine tag and a Smt3-tag, both of which are cleaved by Ulp1. Protein production was achieved by expression in BL21 cells grown in Terrific Broth containing 100 μg/ml ampicillin. Cell cultures were inoculated at 37° C. and grown to an OD600 of 0.8. Cultures were induced with 0.1% arabinose and grown overnight at 20° C. with continuous shaking at 225 rpm. Cells were then harvested by centrifugation and stored at −80° C. Cell pellets were suspended in Buffer A (50 mM Tris-HCl pH 7.2, 100 mM NaCl, 100 mM L-arginine, 1 mM TCEP, 0.05% (w/v) NP-40, 50 mM imidazole) followed by the addition of lysozyme and benzonase. Cells were lysed by sonication and the lysate was cleared by centrifugation (15,000 rpm, 90 min, 4° C.). The protein was purified by nickel affinity chromatography using a HisTrap Crude FF column (GE Healthcare). Samples were eluted in Buffer A with a 50-200 mM imidazole gradient. Cleavage of the Smt tag with Ulp1 protease was achieved via overnight incubation with dialyzing against Buffer A. The PHD2181-417 sample was then passed over a second HisTrap Crude FF column (GE Healthcare) to remove uncleaved protein. The flow-through was then dialyzed into 50 mM MES pH 6.0, 1 mM TCEP, 5 mM NaCl for ion exchange chromatography on a HiTrap SP Cation Exchange column (GE Healthcare). The PHD2181-417 protein was eluted with a 0-0.2 M NaCl gradient. Fractions were pooled for further purification by size exclusion chromatography over a Superdex 75 Size Exclusion Column (GE Healthcare). Final protein was concentrated to 4 mg/ml and dialyzed in 10 mM PIPES pH 7.0, 100 mM NaCl, 0.5 mM TCEP.
(10 μM, California Peptide Research Inc., Napa, Calif.), and [5-^14C]-2-oxoglutaric acid (50 mCi/mmol, Moravek Chemicals, Brea, Calif.) in reaction buffer (40 mM Tris-HCl, pH 7.5, 0.4 mg/ml catalase, 0.5 mM DTT, 1 mM ascorbate) for 10 minutes. Compounds were pre-incubated for 30 min before starting the reaction (all test compounds were dissolved at 10 mM in 100% DMSO (w/v) and were tested with final compound concentrations at 100 μM in 1% DMSO (w/v)). The reaction was stopped by addition of 50 μl of 70 mM H3PO4 and 50 μl of 500 mM NaH2PO4, pH 3.2. Detection of [^14C]-succinic acid was achieved by separating from [5-^14C]-2-oxoglutaric acid by incubating the reaction mixture with 100 μl of 0.16 M DNP prepared in 30% perchloric acid. Next, 50 μl of unlabeled 20 mM 2-oxoglutaric acid/20 mM succinic acid, serving as carrier for the radioactivity, was added to the mixture, and was allowed to proceed for 30 minutes at room temperature. The reaction was then incubated with 50 μl of 1 M 2-oxoglutaric acid for 30 additional minutes at room temperature to precipitate the excess DNP. The reaction was then centrifuged at 2800×g for 10 minutes at room temperature to separate [^14C]-succinic acid in the supernatant from the precipitated [^14C]-dinitrophenylhydrazone. Fractions of the supernatant (400 μI) were counted using a beta counter (Beckman Coulter, Fullerton, Calif.). Inhibition of PHD2181-417 activity was measured as a decrease in succinic acid production. The IC50 values were estimated by fitting the data to a three-parameter logistic function using GraphPad Prism, version 4.02 (Graph Pad Software, San Diego, Calif.).

Assay [2] has as its system Erythropoietin secretion, Hep-3B cells. Description: Cellular assay: EPO secretion in Hep-3B cells. The assay is classed as cell-based. The settings on record: Homo sapiens, Hep3B, 100 μM compound, 24 hours, percent of EPO secretion relative to assay control compound 7-[(4-Chloro-phenyl)-(5-methyl-isoxazol-3-ylamino)-methyl]-quinolin-8-ol, read-out: Cellular % EPO Stimulation. Here is the method: Hep-3B cells (ATCC, Manassas, Va.) were plated in 96-well plates at 20,000 cells per well in 100 μl of DMEM containing 10% fetal bovine serum, 1% non-essential amino acids, 50 IU/mL of penicillin and 50 μg/mL of streptomycin (all cell culture reagents from Invitrogen, Carlsbad, Calif.). Twenty-four hours after plating, compounds were added and incubated for an additional 24 hours. All compounds were tested with final compound concentrations at 100 μM. Fifty microliters of the supernatant was then transferred to a human Hypoxia assay kit (Meso-Scale Discovery, Gaithersburg, Md.). Erythropoietin in the supernatant was detected according to the manufacturer's instructions as follows. EPO detection plates were blocked with 3% BSA in PBS overnight and 50 μl of the supernatant was incubated at room temperature in an orbital shaker for 2 h. Twenty-five microliters of 0.5 μg/ml anti-EPO detection antibody was added for 2 hours at room temperature in an orbital shaker. After 3 washes in PBS, 150 μl of 1× read buffer is added and the plate is then read on the MSD SECTOR instrument. Data was analyzed by determining the percent of EPO secretion in the presence of 100 μM compound relative to an assay control compound, 7-[(4-Chloro-phenyl)-(5-methyl-isoxazol-3-ylamino)-methyl]-quinolin-8-ol.

Each structure is given as a SMILES string.

PHD2181-417, sequence (Q9GZT9 181-417): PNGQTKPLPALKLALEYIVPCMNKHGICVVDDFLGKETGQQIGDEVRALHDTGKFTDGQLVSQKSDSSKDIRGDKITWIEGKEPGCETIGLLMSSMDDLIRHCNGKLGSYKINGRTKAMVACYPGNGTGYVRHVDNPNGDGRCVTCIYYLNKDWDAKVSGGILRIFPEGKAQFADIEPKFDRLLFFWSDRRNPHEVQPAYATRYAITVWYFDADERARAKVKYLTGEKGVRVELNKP

For the molecule `O=C(O)c1cnn(-c2nc(N3CCCC3)c3cc(OC4CCCCC4)c(F)cc3n2)c1` [Example 103, 1-(7-fluoro-6-(cyclohexyloxy)-4-(pyrrolidin-1-yl)quinazolin-2-yl)-1H-pyrazole-4-carboxylic acid], in assay [1], the “Enzyme pIC50” value was found to be 7.3. For the same molecule, the activation at 100 µM in assay [2] worked out at 31%.

As for `O=C(O)c1cnn(-c2nc(NC3CC3)c3cc(C4CCCCC4)ccc3n2)c1` [Example 32, 1-(6-Cyclohexyl-4-(cyclopropylamino)quinazolin-2-yl)-1H-pyrazole-4-carboxylic acid], the “Enzyme pIC50” value in assay [1] was 6.7. Further, the activation at 100 µM in assay [2] stood at 49%.

Turning to `CCN(C)c1nc(-n2cc(C(=O)O)cn2)nc2cc(F)c(OC3CCCCC3)cc12` [Example 104, 1-(7-fluoro-6-(cyclohexyloxy)-4-(ethyl(methyl)amino)quinazolin-2-yl)-1H-pyrazole-4-carboxylic acid], in assay [1], the “Enzyme pIC50” value is 7.1. For the same molecule, the activation at 100 µM in assay [2] turned out to be 49%.

In the case of `CN(C)c1nc(-n2cc(C(=O)O)cn2)nc2ccc(-c3ccccc3)cc12` [Example 41, 1-(4-(Dimethylamino)-6-phenylquinazolin-2-yl)-1H-pyrazole-4-carboxylic acid], the “Enzyme pIC50” value in assay [1] came to 7.2. Besides, the activation at 100 µM in assay [2] worked out at 43%.

Regarding `O=C(O)c1cnn(-c2nc(NC3CCOCC3)c3cc(Oc4ccc(Cl)cc4)ccc3n2)c1` [Example 68, 1-(6-(4-Chlorophenoxy)-4-((tetrahydro-2H-pyran-4-yl)amino)quinazolin-2-yl)-1H-pyrazole-4-carboxylic acid], in assay [1], the “Enzyme pIC50” value was 6.9. Moreover, in assay [2], the activation at 100 µM worked out at 40%.

As to `CCCN(CCC)c1nc(-n2cc(C(=O)O)cn2)nc2cc(F)c(Oc3c(C)cccc3C)cc12` [Example 12, 1-[6-(2,6-Dimethyl-phenoxy)-4-dipropylamino-7-fluoro-quinazolin-2-yl]-1H-pyrazole-4-carboxylic acid], in assay [1], the “Enzyme pIC50” value was determined as 7.4. Also, the activation at 100 µM in assay [2] was 9%.

As to `O=C(O)c1cnn(-c2nc(NC3CC3)c3cc(Oc4ccc(Cl)cc4)ccc3n2)c1` [Example 62, 1-(6-(4-Chlorophenoxy)-4-(cyclopropylamino)quinazolin-2-yl)-1H-pyrazole-4-carboxylic acid], the “Enzyme pIC50” value in assay [1] is given as 7.0. Moreover, the activation at 100 µM in assay [2] worked out at 32%.

Consider `CCN(CC)c1nc(-n2cc(C(=O)O)cn2)nc2cc(F)c(OC3CCCCC3)cc12` [Example 102, 1-(6-(Cyclohexyloxy)-4-(diethylamino)-7-fluoroquinazolin-2-yl)-1H-pyrazole-4-carboxylic acid], for which, in assay [1], the “Enzyme pIC50” value is 7.5. The activation at 100 µM in assay [2] turned out to be 37%.

As for `O=C(O)c1cnn(-c2nc(N3CCOCC3)c3cc(C4CCCCC4)ccc3n2)c1` [Example 33, 1-(6-Cyclohexyl-4-morpholinoquinazolin-2-yl)-1H-pyrazole-4-carboxylic acid], in assay [1], the “Enzyme pIC50” value was 6.8. Besides, in assay [2], the activation at 100 µM was 36%.

`O=C(O)c1cnn(-c2nc(Nc3ccccc3)c3cc(Oc4ccc(Cl)cc4)ccc3n2)c1` [Example 69, 1-(6-(4-Chlorophenoxy)-4-(phenylamino)quinazolin-2-yl)-1H-pyrazole-4-carboxylic acid]: the “Enzyme pIC50” value in assay [1] was determined as 7.7. Moreover, the activation at 100 µM in assay [2] amounted to 23%.

For the molecule `O=C(O)c1cnn(-c2nc(NC3CC3)c3cc(OC4CCCCC4)ccc3n2)c1` [Example 176, 1-(6-(cyclohexyloxy)-4-(cyclopropylamino)quinazolin-2-yl)-1H-pyrazole-4-carboxylic acid], the “Enzyme pIC50” value in assay [1] amounted to 6.8. For the same molecule, in assay [2], the activation at 100 µM is 35%.

For `CNc1nc(-n2cc(C(=O)O)cn2)nc2cc(F)c(Oc3c(C)cccc3C)cc12` [Example 2, 1-[6-(2,6-Dimethyl-phenoxy)-7-fluoro-4-methylamino-quinazolin-2-yl]-1H-pyrazole-4-carboxylic acid], in assay [1], the “Enzyme pIC50” value turned out to be 7.2. Further, in assay [2], the activation at 100 µM turned out to be 10%.

For the molecule `Cc1cccc(C)c1Oc1cc2c(N3CCOCC3)nc(-n3cc(C(=O)O)cn3)nc2cc1F` [Example 20, 1-(6-(2,6-Dimethylphenoxy)-7-fluoro-4-morpholinoquinazolin-2-yl)-1H-pyrazole-4-carboxylic acid], in assay [1], the “Enzyme pIC50” value amounted to 7.0. Moreover, the activation at 100 µM in assay [2] was 54%.

For `O=C(O)c1cnn(-c2nc(N3CCCCC3)c3cc(Oc4ccc(Cl)cc4)ccc3n2)c1` [Example 63, 1-(6-(4-Chlorophenoxy)-4-(piperidin-1-yl)quinazolin-2-yl)-1H-pyrazole-4-carboxylic acid], the “Enzyme pIC50” value in assay [1] is recorded as 7.6. Further, the activation at 100 µM in assay [2] was found to be 39%.

As for `CCN(CC)c1nc(-n2cc(C(=O)O)cn2)nc2ccc(-c3ccccc3)cc12` [Example 46, 1-(4-(Diethylamino)-6-phenylquinazolin-2-yl)-1H-pyrazole-4-carboxylic acid], in assay [1], the “Enzyme pIC50” value turned out to be 7.4. For the same molecule, the activation at 100 µM in assay [2] was determined as 26%.

As for `CCN(C)c1nc(-n2cc(C(=O)O)cn2)nc2ccc(-c3ccccc3)cc12` [Example 42, 1-(4-(Ethyl(methyl)amino)-6-phenylquinazolin-2-yl)-1H-pyrazole-4-carboxylic acid], in assay [1], the “Enzyme pIC50” value stood at 7.3. For the same molecule, the activation at 100 µM in assay [2] was 56%.

For `O=C(O)c1cnn(-c2nc(NC3CC3)c3cc(OC4CCCCC4)c(F)cc3n2)c1` [Example 105, 1-(7-fluoro-6-(cyclohexyloxy)-4-(cyclopropylamino)quinazolin-2-yl)-1H-pyrazole-4-carboxylic acid], the “Enzyme pIC50” value in assay [1] was found to be 7.2. For the same molecule, the activation at 100 µM in assay [2] was 29%.

Turning to `CC(C)c1cc2c(NC3CC3)nc(-n3cc(C(=O)O)cn3)nc2cc1Cl` [Example 165, 1-(7-chloro-4-(cyclopropylamino)-6-isopropylquinazolin-2-yl)-1H-pyrazole-4-carboxylic acid], the “Enzyme pIC50” value in assay [1] turned out to be 7.0. For the same molecule, the activation at 100 µM in assay [2] came out at 24%.

Consider `O=C(O)c1cnn(-c2nc(N3CCCCC3)c3cc(-c4ccccc4)ccc3n2)c1` [Example 45, 1-(6-Phenyl-4-(piperidin-1-yl)quinazolin-2-yl)-1H-pyrazole-4-carboxylic acid], for which the “Enzyme pIC50” value in assay [1] was 7.2. Also, the activation at 100 µM in assay [2] amounted to 8%.

In the case of `O=C(O)c1cnn(-c2nc(NC3CC3)c3cc(Oc4ccccc4)ccc3n2)c1` [Example 75, 1-(4-(Cyclopropylamino)-6-phenoxyquinazolin-2-yl)-1H-pyrazole-4-carboxylic acid], the “Enzyme pIC50” value in assay [1] is recorded as 6.8. Also, the activation at 100 µM in assay [2] was 20%.

The values above are taken from US10246442B2, “4-Aminoquinazolin compounds as prolyl hydroxylase inhibitors” (JANSSEN PHARMACEUTICA NV, priority 2011, dated 2019).
